The IC50 is the concentration at which inhibition is half-maximal.

We go through 20 compounds from patent publication US9745299B2, “Substituted tricyclic benzimidazoles as kinase inhibitors” (SELVITA SA, priority 2012, dated 2017).

Structures can show the parent of a compound that is named as a salt.

For one assay, the target named is T1, CDK8/CyclinC (Homo sapiens, UniProt P49336).
T1 construct: purchased ProQinase, Freiburg, Germany
Briefly: ADP-Glo Kinase Assay, CDK8/CyclinC. Note: ATP at apparent Km (53 µM). The format is biochemical. The following applies: read-out: % inhibition at 1 μM CDK8/CyclinC. How it is done:
(§1) Testing of the compounds described in this invention was carried out using the ADP-Glo™ Kinase Assay from Promega Corporation (Madison, Wis., USA).
(§2) The ADP-Glo™ Kinase Assay is a luminescent ADP detection assay to measure kinase activity by quantifying the amount of ADP produced during a kinase reaction. The kinase assay is performed in kinase assay buffer (5 mM MOPS, pH 7.5, 5 mM MgCl2, 0.4 mM EDTA, 1.5 mM DTT). Test samples initially dissolved in DMSO at 10 mM were diluted with the assay buffer to 1000 nM. A 30 μL volume/well of a mixture of substrates containing ATP (final ATP concentration in each kinase assay was equal to its apparent ATP Km).
(§3) The assay was performed in two steps: first, after the kinase reaction, an equal volume of ADP-Glo™ Reagent was added to terminate the kinase reaction and deplete the remaining ATP. Second, the Kinase Detection Reagent was added to simultaneously convert ADP to ATP and allowed the newly synthesized ATP to be measured using a luciferase/luciferin reaction. The luminescent signal generated was proportional to the ADP concentration produced and was correlated with kinase activity.
On the technique in general: ADP-Glo turns the ADP formed in a reaction into a luminescent signal.

The next assay deals with T2, CDK9/CyclinT (Homo sapiens, UniProt P50750).
T2 construct: purchased Proqinase, Freiburg, Germany
Nature of the assay: ADP-Glo Kinase Assay, CDK9/CyclinT. Note: ATP at apparent Km (26 µM). Type of assay: biochemical. The following applies: read-out: % inhibition at 1 μM CDK9/CyclinT. As for the experimental part:
as §1, §2, §3

The next assay deals with T3, CDK1/CyclinB (Homo sapiens, UniProt P06493).
T3 construct: purchased Millipore, Billerica, Mass., USA
Briefly: ADP-Glo Kinase Assay, CDK1/CyclinB. Note: ATP at apparent Km (20 µM). Type of assay: biochemical. Conditions: read-out: % inhibition at 1 μM CDK1/CyclinB. How it is done:
Testing of the compounds described in this invention was carried out using the ADP-Glo™ Kinase Assay from Promega Corporation (Madison, Wis., USA). […] The ADP-Glo™ Kinase Assay is a luminescent ADP detection assay to measure kinase activity by quantifying the amount of ADP produced during a kinase reaction. The kinase assay is performed in kinase assay buffer (5 mM MOPS, pH 7.5, 5 mM MgCl2, 0.4 mM EDTA, 1.5 mM DTT). Test samples initially dissolved in DMSO at 10 mM were diluted with the assay buffer to 1000 nM. A 30 μL volume/well of a mixture of substrates containing ATP (final ATP concentration in each kinase assay was equal to its apparent ATP Km). […] The assay was performed in two steps: first, after the kinase reaction, an equal volume of ADP-Glo™ Reagent was added to terminate the kinase reaction and deplete the remaining ATP. Second, the Kinase Detection Reagent was added to simultaneously convert ADP to ATP and allowed the newly synthesized ATP to be measured using a luciferase/luciferin reaction. The luminescent signal generated was proportional to the ADP concentration produced and was correlated with kinase activity.

The target of another assay is T4, CDK2/CyclinE (Homo sapiens, UniProt P24941).
T4 construct: purchased Millipore, Billerica, Mass., USA
Nature of the assay: ADP-Glo Kinase Assay, CDK2/CyclinE. The following applies: read-out: % inhibition at 1 μM CDK2/CyclinE. Type of assay: biochemical. As for the experimental part: as §1, §2, §3

The next assay concerns the target T5, CDK5/p25 (Homo sapiens, UniProt Q00535).
T5 construct: purchased Millipore, Billerica, Mass., USA
Briefly: ADP-Glo Kinase Assay, CDK5/p25. Note: ATP at apparent Km (12 µM). The format is biochemical. The following applies: read-out: % inhibition at 1 μM CDK5/p25. How it is done: as §1, §2, §3

The next assay deals with T6, CDK7/CyclinH/MAT1 (Homo sapiens, UniProt P50613).
T6 construct: purchased Millipore, Billerica, Mass., USA
Nature of the assay: ADP-Glo Kinase Assay, CDK7/CyclinH/MAT1. The following applies: read-out: % inhibition at 1 μM CDK7/CyclinH/MAT1. The format is biochemical. As for the experimental part:
as §1, §2, §3

Another assay deals with HCT116 cells. Nature of the assay: MTS viability assay, HCT116. Type of assay: cell-based. The following applies: Homo sapiens, HCT-116, HCT116, 72 hour incubation, read-out: IC50 [μM] HCT116 ED50. The source says:
(§4) The viability of CDK8 expressing cells can be evaluated using a tetrazolium salt reduction cell-based assay. In viable cells this colorimetric assay can measure mitochondrial reduction of a tetrazolium component (MTS) into an […] formazan product. For MTS viability assay, human colon cancer cell lines were used (SW480 and HCT116 cell lines), containing elevated levels of CDK8 protein and highly dependent on its expression for proliferation [see, Firenstein et al. Nature 455 (25):547-551, (2008)]. These cell lines were used to determine the activity of the compounds provided herein to inhibit CDK8 in intact cells. Human tumor cell lines were obtained from ATCC (Rockville Md. USA). In each case, and by methods known to those practiced in the art of cell culture, vaiability was measured after 72 hour incubation with the compounds provided herein using a standard MTS protocol (CellTiter 96® AQueous Non-Radioactive Cell Proliferation Assay).
(§5) Briefly, cells were plated at 10,000-20,000 cells per well in DMEM medium supplemented with 10% fetal bovine serum. The compound plate was set up by aliquoting into column 1 of a 96-well plate, the negative control (DMSO), aliquoting into column 12 the positive control, and titrating the test compound in serial dilutions into columns 2-11. An aliquot from each well of the compound plate was transferred to the plated cells and then incubated at 37° C. in 5% CO2. 20 μL of MTS tetrazolium was added to each well of optical plate and the cells were incubated at 37° C. in 5% CO2 for 2 hours. The absorbance was measured at 490 nm using a microplate reader.
Background: Tetrazolium assays rely on reduction of a dye to a coloured formazan, in cell work by metabolically active cells.

In the next assay the test system is SW480 cells. Nature of the assay: MTS viability assay, SW480. The format is cell-based. Conditions: Homo sapiens, SW480, 72 hour incubation, read-out: IC50 [μM] SW-480 ED50.
Excerpt: as §4, §5

T6 sequence (P50613 whole entry): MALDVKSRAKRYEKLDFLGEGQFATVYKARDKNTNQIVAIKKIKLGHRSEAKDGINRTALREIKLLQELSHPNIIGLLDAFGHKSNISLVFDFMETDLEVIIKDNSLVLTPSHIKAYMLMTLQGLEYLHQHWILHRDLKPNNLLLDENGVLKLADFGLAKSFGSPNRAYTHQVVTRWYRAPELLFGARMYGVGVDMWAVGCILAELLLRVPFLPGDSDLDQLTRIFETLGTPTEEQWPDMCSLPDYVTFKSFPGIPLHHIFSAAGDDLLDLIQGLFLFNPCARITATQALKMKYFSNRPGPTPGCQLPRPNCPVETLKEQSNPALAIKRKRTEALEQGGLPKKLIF
T6 sequence (P51946 whole entry partner): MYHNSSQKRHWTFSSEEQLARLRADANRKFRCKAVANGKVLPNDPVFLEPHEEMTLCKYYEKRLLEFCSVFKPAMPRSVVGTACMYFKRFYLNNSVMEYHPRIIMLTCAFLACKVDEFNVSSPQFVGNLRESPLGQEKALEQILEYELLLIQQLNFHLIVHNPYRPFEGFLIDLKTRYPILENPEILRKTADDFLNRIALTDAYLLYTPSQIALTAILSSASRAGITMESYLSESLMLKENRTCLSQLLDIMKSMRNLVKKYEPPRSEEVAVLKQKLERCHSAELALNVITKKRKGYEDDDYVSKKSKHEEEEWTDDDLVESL
T6 sequence (P51948 whole entry partner): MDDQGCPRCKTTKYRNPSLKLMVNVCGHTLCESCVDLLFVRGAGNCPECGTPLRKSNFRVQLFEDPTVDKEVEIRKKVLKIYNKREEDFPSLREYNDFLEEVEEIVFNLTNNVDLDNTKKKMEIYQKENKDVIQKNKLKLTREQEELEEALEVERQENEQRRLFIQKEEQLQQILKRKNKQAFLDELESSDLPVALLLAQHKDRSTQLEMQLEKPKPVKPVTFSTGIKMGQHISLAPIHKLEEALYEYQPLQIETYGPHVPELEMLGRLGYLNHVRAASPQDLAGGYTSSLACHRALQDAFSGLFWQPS
T5 sequence (Q00535 whole entry): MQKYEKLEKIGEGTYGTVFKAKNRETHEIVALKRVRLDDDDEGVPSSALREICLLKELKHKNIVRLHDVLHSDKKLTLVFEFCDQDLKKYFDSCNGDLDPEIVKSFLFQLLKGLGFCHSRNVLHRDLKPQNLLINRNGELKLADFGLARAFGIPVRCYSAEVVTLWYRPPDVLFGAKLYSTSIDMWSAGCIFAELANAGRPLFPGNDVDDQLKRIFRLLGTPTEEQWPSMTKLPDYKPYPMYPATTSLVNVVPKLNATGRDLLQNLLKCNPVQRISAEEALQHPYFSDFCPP
T5 sequence (Q15078 99-307 partner limits assumed): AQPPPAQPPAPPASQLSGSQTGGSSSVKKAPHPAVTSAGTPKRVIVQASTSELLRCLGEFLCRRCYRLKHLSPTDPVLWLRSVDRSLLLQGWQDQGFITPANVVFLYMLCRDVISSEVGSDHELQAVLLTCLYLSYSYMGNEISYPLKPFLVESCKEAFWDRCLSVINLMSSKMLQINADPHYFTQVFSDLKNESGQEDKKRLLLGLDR
T2 sequence (P50750 whole entry): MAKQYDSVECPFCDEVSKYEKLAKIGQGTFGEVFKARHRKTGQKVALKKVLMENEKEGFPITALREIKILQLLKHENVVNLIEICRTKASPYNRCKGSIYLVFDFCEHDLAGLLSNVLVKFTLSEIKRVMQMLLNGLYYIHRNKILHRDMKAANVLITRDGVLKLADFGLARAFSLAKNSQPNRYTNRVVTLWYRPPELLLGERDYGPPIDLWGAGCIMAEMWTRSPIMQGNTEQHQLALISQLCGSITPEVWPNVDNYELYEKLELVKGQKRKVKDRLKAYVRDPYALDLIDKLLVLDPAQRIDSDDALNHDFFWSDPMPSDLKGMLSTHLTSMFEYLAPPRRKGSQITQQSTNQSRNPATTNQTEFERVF
T2 sequence (O60563 whole entry partner): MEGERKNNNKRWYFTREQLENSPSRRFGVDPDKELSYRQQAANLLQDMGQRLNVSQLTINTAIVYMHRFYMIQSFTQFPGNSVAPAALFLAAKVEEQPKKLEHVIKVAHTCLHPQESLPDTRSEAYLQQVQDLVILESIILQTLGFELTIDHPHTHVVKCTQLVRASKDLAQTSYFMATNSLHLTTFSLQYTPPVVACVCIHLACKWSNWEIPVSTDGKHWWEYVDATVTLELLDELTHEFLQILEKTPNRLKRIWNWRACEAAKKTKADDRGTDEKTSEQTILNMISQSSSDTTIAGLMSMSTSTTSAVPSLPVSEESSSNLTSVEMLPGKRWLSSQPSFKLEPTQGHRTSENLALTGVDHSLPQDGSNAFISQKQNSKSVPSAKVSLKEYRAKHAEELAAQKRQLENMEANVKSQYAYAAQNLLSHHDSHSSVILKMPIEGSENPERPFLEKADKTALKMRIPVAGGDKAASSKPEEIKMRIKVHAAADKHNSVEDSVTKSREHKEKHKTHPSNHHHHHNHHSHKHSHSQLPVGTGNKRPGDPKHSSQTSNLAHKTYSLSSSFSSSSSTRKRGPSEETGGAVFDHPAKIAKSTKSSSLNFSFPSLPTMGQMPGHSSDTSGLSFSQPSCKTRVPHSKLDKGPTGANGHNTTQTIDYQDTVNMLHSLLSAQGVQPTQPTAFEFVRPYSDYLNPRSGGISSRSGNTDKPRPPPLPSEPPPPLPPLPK
T3 sequence (P06493 whole entry): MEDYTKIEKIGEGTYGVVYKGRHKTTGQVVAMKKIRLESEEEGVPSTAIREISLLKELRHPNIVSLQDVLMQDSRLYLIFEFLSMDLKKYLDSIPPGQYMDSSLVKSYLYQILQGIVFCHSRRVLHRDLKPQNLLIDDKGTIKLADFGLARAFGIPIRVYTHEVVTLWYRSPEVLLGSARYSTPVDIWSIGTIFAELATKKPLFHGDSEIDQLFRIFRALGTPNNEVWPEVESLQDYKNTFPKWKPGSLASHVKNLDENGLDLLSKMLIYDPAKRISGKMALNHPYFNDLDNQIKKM
T3 sequence (P14635 whole entry partner): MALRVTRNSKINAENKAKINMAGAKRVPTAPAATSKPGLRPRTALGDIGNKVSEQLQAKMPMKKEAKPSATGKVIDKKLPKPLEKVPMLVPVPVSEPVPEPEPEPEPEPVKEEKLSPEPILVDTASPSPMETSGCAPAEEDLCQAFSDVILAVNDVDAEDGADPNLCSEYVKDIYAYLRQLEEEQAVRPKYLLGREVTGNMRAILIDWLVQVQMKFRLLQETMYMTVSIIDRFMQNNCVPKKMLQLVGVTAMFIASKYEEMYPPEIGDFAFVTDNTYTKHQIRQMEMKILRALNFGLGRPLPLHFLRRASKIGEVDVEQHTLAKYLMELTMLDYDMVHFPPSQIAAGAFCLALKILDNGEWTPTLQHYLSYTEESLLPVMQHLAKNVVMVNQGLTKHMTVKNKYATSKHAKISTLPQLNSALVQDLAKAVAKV
T1 sequence (P49336 whole entry): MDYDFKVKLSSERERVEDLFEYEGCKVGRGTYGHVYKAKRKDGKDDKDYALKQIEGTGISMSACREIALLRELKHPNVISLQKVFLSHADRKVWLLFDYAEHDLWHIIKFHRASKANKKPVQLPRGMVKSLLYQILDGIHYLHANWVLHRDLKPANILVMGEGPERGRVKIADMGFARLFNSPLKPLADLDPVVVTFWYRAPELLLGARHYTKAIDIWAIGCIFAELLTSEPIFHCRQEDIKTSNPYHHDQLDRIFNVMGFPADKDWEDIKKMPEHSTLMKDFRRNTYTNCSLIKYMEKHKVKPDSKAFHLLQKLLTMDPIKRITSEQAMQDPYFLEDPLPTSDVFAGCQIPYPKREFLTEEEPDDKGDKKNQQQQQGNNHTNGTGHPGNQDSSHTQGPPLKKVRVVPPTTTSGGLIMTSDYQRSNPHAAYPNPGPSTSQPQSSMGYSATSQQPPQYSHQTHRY
T1 sequence (P24863 whole entry partner): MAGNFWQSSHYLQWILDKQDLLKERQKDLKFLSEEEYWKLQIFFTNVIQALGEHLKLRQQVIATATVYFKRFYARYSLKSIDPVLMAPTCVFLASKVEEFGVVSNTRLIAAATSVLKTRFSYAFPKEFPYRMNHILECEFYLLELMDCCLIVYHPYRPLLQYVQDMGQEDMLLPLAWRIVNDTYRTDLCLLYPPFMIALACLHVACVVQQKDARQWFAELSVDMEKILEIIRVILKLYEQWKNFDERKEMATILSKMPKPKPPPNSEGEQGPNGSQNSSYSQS

In the case of `NCCNc1nc2c(Br)c(Br)c(Br)c3c2n1CCC3` [Example 1A, N-(7,8,9-tribromo-5,6-dihydro-4H-imidazo[4,5,1-ij]quinolin-2-yl)ethane-1,2-diamine hydrochloride], the inhibition at 1 µM at CDK8/CyclinC worked out at 52%; at CDK9/CyclinT it was 33%; at CDK1/CyclinB it was 0%; on CDK2/CyclinE, 0%; at CDK5/p25 it was 0%; on CDK7/CyclinH/MAT1 it was 0%. For the same compound, the figures for the IC50 in the assay on HCT116 cells and in the assay with SW480 cells were 1.2 µM and 1.9 µM, respectively.
On to `Cc1c(Br)c2c3c(nc(N4CCNCC4)n3CCC2)c1Br` [Example 1AX], for which the inhibition at 1 µM turned out to be 70% on CDK8/CyclinC, 7% on CDK9/CyclinT, 7% on CDK1/CyclinB and 1% on CDK2/CyclinE. Further, the IC50 in the assay with HCT116 cells was 1.5 µM.
Turning to `NCCCNc1nc2c(Br)c(Br)c(Br)c3c2n1CCC3` [Example 1C], the inhibition at 1 µM at CDK8/CyclinC worked out at 52%; on CDK9/CyclinT, 9%; at CDK1/CyclinB it was 0%; on CDK2/CyclinE, 8%.
For `CC1CNCCN1c1nc2c(Br)c(Br)c(Br)c3c2n1CCC3` (centres unmarked) [Example 1E], the inhibition at 1 µM on CDK8/CyclinC stood at 89%; on CDK9/CyclinT it was 20%; at CDK2/CyclinE it was 2%. Also, the results for the half-maximal inhibitory concentration (IC50) with HCT116 cells and with SW480 cells were 1.9 µM and 2.7 µM, respectively.
As to `N[C@H]1CCN(c2nc3c(Br)c(Br)c(Br)c4c3n2CCC4)C1` [Example 1G], the inhibition at 1 µM at CDK8/CyclinC amounted to 96%; on CDK9/CyclinT, 45%; at CDK2/CyclinE it was 29%. Besides, the IC50 was 0.7 µM with HCT116 cells and 1.1 µM in the assay with SW480 cells.
For `Brc1c(Br)c2c3c(nc(NC4CCNC4)n3CCC2)c1Br` (centres unmarked) [Example 1L], the figures for the inhibition at 1 µM at CDK8/CyclinC, at CDK9/CyclinT and on CDK2/CyclinE were 81%, 9% and 19%, respectively. The figures for the IC50 in the assay with HCT116 cells and with SW480 cells were 1.1 µM and 1.4 µM, respectively.
As for `NC1CCCN(c2nc3c(Br)c(Br)c(Br)c4c3n2CCC4)CC1` (centres unmarked) [Example 1M], the inhibition at 1 µM on CDK8/CyclinC amounted to 59%; on CDK9/CyclinT, 0%; on CDK2/CyclinE it was 6%. Besides, the IC50 in the assay with HCT116 cells was found to be 1.1 µM; with SW480 cells it was 1.5 µM.
For `NCCNc1nc2c(I)c(Br)c(Br)c3c2n1CCC3` [Example 1W], the inhibition at 1 µM at CDK8/CyclinC was determined as 100%; at CDK9/CyclinT, 13%; at CDK1/CyclinB, 7%; at CDK2/CyclinE, 0%; at CDK5/p25, 2%; at CDK7/CyclinH/MAT1 it was 0%.
For the compound `OC1CCN(c2nc3c(Br)c(Br)c(Br)c4c3n2CCC4)CC1` [Example 3A, 1-(7,8,9-tribromo-5,6-dihydro-4H-imidazo[4,5,1-ij]quinolin-2-yl)piperidin-4-ol], the inhibition at 1 µM at CDK8/CyclinC amounted to 61%; at CDK9/CyclinT, 1%; on CDK1/CyclinB it was 0%; at CDK2/CyclinE, 4%; at CDK5/p25 it was 0%; at CDK7/CyclinH/MAT1, 3%.
For the compound `C[C@H]1CN(c2nc3c(Br)c(Br)c(Br)c4c3n2CCC4)CCN1` [Example 3AA], the inhibition at 1 µM on CDK8/CyclinC amounted to 96%; on CDK9/CyclinT, 21%; at CDK2/CyclinE, 20%. Further, the figures for the IC50 in the assay on HCT116 cells and in the assay with SW480 cells were 0.4 µM and 1.3 µM, respectively.
The corresponding values for `C[C@@H]1CN(c2nc3c(Br)c(Br)c(Br)c4c3n2CCC4)CCN1` [Example 3AB] are 84%, 47%, 27%, 0.4 µM and 1.4 µM.
In the same order, the values of `C[C@@H]1CN(c2nc3c(I)c(Br)c(Br)c4c3n2CCC4)CCN1` [Example 3AD] are 100%, 42%, 16%, 0.6 µM and 1.3 µM.
In the same order, the values of `CN1CCN(c2nc3c(I)c(Br)c(Br)c4c3n2CCC4)CC1` [Example 3AM] are 100%, 39%, 40%, 2.8 µM and 4 µM.
`Brc1c(Br)c2c3c(nc(N4CCCCC4)n3CCC2)c1Br` [Example 3D]: the inhibition at 1 µM on CDK8/CyclinC came out at 87%; on CDK9/CyclinT it was 20%; on CDK1/CyclinB, 2%; at CDK2/CyclinE, 0%; on CDK5/p25, 0%; on CDK7/CyclinH/MAT1, 11%.
`Nc1nc2c(Br)c(Br)c(Br)c3c2n1CCC3` [Example 3J]: the inhibition at 1 µM on CDK8/CyclinC worked out at 58%; on CDK9/CyclinT it was 34%; on CDK1/CyclinB it was 0%; at CDK2/CyclinE it was 1%; on CDK5/p25, 53%; at CDK7/CyclinH/MAT1, 0%.
In the case of `CC1CCCN1c1nc2c(Br)c(Br)c(Br)c3c2n1CCC3` (centres unmarked) [Example 3R], the inhibition at 1 µM at CDK8/CyclinC stood at 100%; on CDK9/CyclinT it was 4%; at CDK1/CyclinB it was 0%; on CDK2/CyclinE, 0%; at CDK5/p25 it was 4%; at CDK7/CyclinH/MAT1, 36%.
Turning to `C[C@H]1CN(c2nc3c(I)c(Br)c(Br)c4c3n2CCC4)CCN1` [Example 3T], the inhibition at 1 µM stood at 90% on CDK8/CyclinC, 21% on CDK9/CyclinT and 17% on CDK2/CyclinE. Besides, the IC50 with HCT116 cells was 1.6 µM; with SW480 cells, 1.3 µM.
In the same order, the values of `CC1(C)CN(c2nc3c(I)c(Br)c(Br)c4c3n2CCC4)CCN1` [Example 3W] are 92%, 10%, 8%, 1.5 µM and 1.4 µM.
In the case of `CN1CCC(c2nc3c(Br)c(Br)c(Br)c4c3n2CCC4)CC1` [Example 7B], the inhibition at 1 µM worked out at 88% on CDK8/CyclinC, 6% at CDK9/CyclinT and 14% on CDK2/CyclinE. The IC50 was 2.6 µM with HCT116 cells and 6.3 µM with SW480 cells.
The corresponding values for `N#Cc1c(Br)c(Br)c2c3c1nc(N1CCNCC1)n3CCC2` [Example 8B] are 90%, 20%, 0%, 1.7 µM and 4.1 µM.
